From patent US10494332B2, “Protein tyrosine phosphatases or SHP2 inhibitors and uses thereof” (Indiana University Research and Technology Corporation, priority 2015, dated 2019)
Values joined by “and” are separate entries in the source; they are usually repeats but may differ in a detail not shown here. Identical values can stand only once. Like-named read-outs stand apart in the source and are kept apart here.

Columns and labels:
PTPμ = PTPμ (Homo sapiens, UniProt P28827); assay: PTP inhibition assay (pNPP)
Sequence of PTPμ (P28827 21-1452): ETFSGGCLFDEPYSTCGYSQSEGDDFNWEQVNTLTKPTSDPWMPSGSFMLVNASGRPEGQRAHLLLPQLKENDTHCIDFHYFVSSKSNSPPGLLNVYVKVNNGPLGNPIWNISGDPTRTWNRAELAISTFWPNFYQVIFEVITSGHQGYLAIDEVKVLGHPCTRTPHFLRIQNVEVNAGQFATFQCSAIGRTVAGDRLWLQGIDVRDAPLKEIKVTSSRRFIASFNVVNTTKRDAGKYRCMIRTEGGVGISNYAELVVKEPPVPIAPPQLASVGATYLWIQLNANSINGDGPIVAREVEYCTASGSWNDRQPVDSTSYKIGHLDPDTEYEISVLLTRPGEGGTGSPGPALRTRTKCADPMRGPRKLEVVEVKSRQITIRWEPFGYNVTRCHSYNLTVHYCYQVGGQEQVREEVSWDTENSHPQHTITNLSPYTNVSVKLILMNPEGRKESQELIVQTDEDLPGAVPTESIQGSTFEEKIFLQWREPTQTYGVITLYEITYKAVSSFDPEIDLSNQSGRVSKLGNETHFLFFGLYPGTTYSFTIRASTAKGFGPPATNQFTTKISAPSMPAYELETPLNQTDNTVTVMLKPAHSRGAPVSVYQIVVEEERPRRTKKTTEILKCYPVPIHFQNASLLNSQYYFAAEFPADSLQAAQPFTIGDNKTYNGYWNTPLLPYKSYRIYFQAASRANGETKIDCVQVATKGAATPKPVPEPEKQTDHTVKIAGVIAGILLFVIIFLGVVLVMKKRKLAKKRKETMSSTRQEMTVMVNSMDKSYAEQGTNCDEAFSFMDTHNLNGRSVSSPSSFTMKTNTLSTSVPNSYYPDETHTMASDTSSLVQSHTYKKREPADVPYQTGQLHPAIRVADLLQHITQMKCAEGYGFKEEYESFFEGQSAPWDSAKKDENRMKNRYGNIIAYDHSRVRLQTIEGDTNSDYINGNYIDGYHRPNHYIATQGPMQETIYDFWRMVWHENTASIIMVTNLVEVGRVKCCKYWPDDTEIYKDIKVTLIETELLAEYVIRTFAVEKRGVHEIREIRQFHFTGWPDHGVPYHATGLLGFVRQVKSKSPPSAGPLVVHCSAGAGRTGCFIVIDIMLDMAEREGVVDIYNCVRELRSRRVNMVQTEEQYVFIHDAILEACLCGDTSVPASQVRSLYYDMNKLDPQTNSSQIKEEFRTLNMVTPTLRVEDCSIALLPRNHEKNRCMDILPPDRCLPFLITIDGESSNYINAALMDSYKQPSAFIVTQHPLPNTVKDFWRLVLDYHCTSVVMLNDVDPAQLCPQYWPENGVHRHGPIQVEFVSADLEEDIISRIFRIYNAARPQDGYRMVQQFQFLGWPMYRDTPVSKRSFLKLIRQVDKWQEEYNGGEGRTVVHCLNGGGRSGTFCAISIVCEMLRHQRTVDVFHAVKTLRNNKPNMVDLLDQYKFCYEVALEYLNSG

VHX = biological target: T1, VHX (Homo sapiens, UniProt Q9NRW4); assay: PTP inhibition assay (pNPP); type: biochemical
T1 sequence (Q9NRW4 1-184): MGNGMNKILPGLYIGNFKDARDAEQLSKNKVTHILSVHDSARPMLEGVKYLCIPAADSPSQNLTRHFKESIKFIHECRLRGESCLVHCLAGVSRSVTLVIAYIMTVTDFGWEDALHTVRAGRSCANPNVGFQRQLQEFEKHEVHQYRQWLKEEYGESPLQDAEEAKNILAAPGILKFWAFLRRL

PTPε = PTPε (Homo sapiens, UniProt P23469); assay: PTP inhibition assay (pNPP); type: biochemical
Sequence of PTPε (P23469 20-700): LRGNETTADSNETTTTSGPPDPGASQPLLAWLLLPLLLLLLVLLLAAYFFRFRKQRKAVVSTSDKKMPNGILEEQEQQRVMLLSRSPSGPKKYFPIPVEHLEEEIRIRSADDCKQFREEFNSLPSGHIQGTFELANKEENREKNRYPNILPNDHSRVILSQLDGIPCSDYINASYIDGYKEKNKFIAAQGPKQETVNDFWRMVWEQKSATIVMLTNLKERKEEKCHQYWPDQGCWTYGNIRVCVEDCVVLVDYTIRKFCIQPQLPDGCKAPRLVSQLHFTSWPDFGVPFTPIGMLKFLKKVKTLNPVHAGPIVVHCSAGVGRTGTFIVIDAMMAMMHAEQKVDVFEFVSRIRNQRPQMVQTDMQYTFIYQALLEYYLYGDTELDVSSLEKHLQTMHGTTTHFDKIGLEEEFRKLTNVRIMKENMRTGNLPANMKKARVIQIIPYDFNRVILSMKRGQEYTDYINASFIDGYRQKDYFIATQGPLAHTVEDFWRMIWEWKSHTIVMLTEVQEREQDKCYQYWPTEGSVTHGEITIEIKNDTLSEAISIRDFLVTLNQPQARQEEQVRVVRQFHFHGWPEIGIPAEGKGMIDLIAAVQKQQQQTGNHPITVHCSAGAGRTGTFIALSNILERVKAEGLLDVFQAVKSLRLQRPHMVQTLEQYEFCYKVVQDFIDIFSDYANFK

PTPβ = PTPβ (Homo sapiens, UniProt P23467); assay: PTP inhibition assay (pNPP); type: biochemical
Sequence of PTPβ (P23467 23-1997): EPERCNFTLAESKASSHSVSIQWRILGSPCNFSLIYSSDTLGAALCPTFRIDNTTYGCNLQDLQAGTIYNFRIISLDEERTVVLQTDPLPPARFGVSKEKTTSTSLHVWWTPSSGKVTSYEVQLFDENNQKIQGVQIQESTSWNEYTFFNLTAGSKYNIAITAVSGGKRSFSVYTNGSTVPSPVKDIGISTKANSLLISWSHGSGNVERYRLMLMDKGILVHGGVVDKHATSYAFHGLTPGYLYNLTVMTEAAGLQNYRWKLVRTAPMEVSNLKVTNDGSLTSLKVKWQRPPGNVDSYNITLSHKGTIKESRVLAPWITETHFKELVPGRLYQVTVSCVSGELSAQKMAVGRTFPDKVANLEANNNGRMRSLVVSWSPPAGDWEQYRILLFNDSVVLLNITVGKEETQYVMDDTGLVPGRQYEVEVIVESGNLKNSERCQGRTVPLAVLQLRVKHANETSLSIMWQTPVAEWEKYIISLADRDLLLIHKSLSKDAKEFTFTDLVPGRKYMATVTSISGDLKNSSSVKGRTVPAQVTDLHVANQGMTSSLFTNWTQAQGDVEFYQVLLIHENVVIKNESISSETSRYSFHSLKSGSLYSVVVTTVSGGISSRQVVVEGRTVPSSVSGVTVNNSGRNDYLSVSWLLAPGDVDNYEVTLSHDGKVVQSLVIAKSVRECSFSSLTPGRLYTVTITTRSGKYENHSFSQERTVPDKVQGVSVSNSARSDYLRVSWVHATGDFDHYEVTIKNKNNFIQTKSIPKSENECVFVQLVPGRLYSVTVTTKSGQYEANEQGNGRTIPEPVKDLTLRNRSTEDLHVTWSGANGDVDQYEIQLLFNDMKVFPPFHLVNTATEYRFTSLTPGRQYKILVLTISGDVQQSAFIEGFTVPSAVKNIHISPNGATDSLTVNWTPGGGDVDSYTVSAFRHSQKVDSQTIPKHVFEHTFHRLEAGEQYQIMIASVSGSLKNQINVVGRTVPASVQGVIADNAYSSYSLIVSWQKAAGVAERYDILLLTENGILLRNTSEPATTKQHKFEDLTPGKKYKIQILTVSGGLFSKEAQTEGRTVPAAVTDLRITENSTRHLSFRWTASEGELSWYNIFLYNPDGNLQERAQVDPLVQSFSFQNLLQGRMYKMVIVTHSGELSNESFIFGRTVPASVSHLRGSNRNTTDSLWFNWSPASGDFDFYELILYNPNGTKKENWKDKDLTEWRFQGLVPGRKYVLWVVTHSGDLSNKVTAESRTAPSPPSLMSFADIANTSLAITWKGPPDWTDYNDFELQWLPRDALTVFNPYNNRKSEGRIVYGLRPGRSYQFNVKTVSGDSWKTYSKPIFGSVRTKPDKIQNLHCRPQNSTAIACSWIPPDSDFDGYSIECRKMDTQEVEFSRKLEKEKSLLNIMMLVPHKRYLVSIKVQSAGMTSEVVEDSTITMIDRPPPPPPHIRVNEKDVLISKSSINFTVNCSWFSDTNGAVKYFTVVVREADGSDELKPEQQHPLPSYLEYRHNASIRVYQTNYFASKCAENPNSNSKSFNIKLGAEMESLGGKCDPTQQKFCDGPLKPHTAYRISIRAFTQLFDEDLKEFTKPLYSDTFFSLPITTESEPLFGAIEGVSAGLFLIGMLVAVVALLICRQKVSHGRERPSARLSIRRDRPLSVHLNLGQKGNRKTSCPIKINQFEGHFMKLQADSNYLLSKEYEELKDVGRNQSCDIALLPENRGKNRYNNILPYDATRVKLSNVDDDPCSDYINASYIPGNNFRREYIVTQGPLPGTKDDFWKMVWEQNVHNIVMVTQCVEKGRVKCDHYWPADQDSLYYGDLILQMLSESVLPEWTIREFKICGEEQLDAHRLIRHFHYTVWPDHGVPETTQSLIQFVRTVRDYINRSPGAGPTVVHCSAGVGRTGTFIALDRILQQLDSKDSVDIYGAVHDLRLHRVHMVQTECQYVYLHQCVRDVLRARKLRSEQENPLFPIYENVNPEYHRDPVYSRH

CDC14A = biological target: T2, CDC14A (Homo sapiens, UniProt Q9UNH5); assay: PTP inhibition assay (pNPP); type: biochemical
T2 sequence (Q9UNH5 1-594): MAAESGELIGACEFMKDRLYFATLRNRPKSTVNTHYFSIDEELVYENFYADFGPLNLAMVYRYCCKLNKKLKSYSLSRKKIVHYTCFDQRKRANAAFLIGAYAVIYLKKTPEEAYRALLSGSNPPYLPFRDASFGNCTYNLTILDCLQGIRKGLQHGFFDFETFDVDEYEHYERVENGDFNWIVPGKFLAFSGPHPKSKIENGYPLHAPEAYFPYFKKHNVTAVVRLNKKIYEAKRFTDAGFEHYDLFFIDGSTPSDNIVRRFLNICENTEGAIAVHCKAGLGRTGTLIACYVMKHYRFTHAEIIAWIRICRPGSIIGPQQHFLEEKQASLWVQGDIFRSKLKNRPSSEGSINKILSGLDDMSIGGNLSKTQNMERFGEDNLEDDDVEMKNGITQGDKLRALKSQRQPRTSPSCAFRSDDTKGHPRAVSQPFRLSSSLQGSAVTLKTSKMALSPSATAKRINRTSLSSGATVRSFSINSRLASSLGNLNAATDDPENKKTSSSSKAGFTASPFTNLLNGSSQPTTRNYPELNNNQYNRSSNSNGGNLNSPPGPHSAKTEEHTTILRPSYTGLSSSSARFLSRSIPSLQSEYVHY

HePTP = biological target: T3, HePTP (Homo sapiens, UniProt P35236); assay: PTP inhibition assay (pNPP); type: biochemical; details: pNPP at Km, pH 7.0, 25° C.
T3 sequence (P35236 1-360): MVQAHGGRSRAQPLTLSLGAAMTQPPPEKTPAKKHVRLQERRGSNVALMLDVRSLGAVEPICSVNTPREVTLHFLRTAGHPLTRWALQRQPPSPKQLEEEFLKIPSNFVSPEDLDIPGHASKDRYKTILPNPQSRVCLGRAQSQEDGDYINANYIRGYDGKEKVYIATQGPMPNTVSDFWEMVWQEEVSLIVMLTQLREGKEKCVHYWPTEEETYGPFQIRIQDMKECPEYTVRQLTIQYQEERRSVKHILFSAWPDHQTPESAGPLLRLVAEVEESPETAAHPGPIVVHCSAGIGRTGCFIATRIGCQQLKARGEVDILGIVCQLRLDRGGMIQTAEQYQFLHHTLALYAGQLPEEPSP

PP5 = biological target: T4, PP5 (Homo sapiens, UniProt P53041); assay: Phosphatase inhibition assay (pNPP)
T4 sequence (P53041 1-499): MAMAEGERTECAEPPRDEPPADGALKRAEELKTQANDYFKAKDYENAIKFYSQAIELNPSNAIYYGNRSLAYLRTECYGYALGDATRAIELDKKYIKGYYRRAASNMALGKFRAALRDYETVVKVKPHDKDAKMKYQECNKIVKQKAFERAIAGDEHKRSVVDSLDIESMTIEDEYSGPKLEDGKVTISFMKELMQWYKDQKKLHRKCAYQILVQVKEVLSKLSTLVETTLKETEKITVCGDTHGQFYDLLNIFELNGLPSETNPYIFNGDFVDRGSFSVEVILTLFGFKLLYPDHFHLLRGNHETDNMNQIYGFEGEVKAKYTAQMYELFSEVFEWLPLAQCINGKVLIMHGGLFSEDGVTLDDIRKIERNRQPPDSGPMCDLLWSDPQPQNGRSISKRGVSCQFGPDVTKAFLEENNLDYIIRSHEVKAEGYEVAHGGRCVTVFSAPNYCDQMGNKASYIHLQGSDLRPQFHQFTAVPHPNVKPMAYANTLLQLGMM

PTPα = PTPα (Homo sapiens, UniProt P18433); assay: PTP inhibition assay (pNPP); type: biochemical
LMWPTP = biological target: T5, LMWPTP (Homo sapiens, UniProt P24666); assay: PTP inhibition assay (pNPP); type: biochemical
T5 sequence (P24666 1-158): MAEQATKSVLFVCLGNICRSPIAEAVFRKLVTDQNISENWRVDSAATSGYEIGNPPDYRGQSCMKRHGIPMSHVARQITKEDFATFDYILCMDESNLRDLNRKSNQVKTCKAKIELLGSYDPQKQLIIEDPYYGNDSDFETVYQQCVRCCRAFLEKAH

mPTPB = biological target: T6, mPTPB (Mycobacterium tuberculosis, UniProt I6WXK4); assay: biochemical
T6 sequence (I6WXK4 1-276): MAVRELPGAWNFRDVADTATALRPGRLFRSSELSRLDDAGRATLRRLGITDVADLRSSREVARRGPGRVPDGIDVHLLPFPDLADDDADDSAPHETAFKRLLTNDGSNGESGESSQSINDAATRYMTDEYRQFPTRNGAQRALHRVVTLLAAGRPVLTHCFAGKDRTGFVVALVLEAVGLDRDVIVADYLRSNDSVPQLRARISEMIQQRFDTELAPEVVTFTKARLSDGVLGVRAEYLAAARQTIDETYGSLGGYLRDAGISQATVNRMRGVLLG

SHP1 = SHP1 (Homo sapiens, UniProt P29350); assay: PTP inhibition assay (pNPP); type: biochemical; details: pNPP at Km, pH 7.0, 25° C.
Sequence of SHP1 (P29350 whole entry): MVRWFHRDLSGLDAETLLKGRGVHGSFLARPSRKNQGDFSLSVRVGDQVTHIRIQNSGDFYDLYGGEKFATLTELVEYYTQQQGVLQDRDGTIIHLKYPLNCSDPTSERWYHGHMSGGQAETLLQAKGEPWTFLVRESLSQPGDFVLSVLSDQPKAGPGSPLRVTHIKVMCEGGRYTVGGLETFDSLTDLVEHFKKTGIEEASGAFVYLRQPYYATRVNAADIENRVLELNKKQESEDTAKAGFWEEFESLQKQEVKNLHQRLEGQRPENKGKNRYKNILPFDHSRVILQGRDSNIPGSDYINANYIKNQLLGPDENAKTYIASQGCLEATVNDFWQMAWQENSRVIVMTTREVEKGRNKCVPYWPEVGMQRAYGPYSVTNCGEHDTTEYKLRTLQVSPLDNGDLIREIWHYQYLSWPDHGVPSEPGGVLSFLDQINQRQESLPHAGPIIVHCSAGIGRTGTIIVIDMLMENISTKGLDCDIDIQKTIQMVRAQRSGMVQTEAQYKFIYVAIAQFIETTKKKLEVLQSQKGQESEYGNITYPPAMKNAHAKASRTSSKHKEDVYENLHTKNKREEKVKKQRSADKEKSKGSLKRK

[1] = IC50 VHX (second VHX line of Table 15), pNPP at Km, pH 7.0, 25° C.
[2] = IC50 VHX, pNPP at Km, pH 7.0, 25° C.
[3] = pNPP at Km, pH 7.0, 25° C.; read-out: IC50 VHX
[4] = pNPP at Km, pH 7.0, 25° C.; read-out: IC50 VHX (second VHX line of Table 15)

Row | Structure (SMILES) | IC50 (PTPμ) [µM] | IC50 (VHX; [1]) [µM] | IC50 (VHX; [2]) [µM] | IC50 (PTPε) [µM] | IC50 (PTPβ) [µM] | IC50 (CDC14A) [µM] | IC50 (HePTP) | IC50 (PP5) [µM] | IC50 (PTPα) [µM] | IC50 (LMWPTP; pNPP at Km, pH 7.0, 25° C.) | IC50 (mPTPB; Biochemical potency against target (Ic50, nM) mPTPB) [nM] | IC50 (mPTPB; IC50 mPTPB) | IC50 (SHP1) | IC50 (VHX; [3]) | IC50 (VHX; [4]) [µM] | IC50 (VHX; read-out: IC50 VHX; pNPP at Km, pH 7.0, 25° C.) [µM] | IC50 (LMWPTP; pH 7) [µM]
1 | Cc1c(Br)cc(NC(=O)CS(=O)(=O)O)cc1Br | > 100 | > 100 | > 100 | > 100 | > 100 | > 100 | > 100 µM | > 100 | > 100 | 4.2 µM | > 3200 | 3100 nM | > 100 µM |  |  |  | 
2 | O=C(CS(=O)(=O)O)Nc1ccc2nc(C(F)(F)F)[nH]c2c1 | > 100 |  |  | > 100 | > 100 | > 100 | > 100 µM | > 100 | > 100 | 1.86 µM |  |  | > 100 µM | > 100 µM | > 100 |  | 
3 | O=C(CS(=O)(=O)O)Nc1cnc2ccccc2c1 | > 100 |  |  | > 100 | > 100 | > 100 | > 100 µM | > 100 | > 100 | 12 µM |  | 55000 nM | > 100 µM | > 100 µM | > 100 |  | 
4 | O=C(NCCNC(=O)C(c1ccccc1)S(=O)(=O)O)c1cccc(C(=O)c2ccccc2)c1 (stereo not drawn) [Compound L319-02-A60] |  |  |  |  |  |  | > 200 µM |  |  | > 200 µM |  |  | > 200 µM | > 200 µM |  |  | 
5 | O=C(NCc1ccc(NC(=O)C(c2ccccc2)S(=O)(=O)O)cc1)c1ccccc1-c1ccc(C(F)(F)F)cc1 (stereo not drawn) [Compound L319-05-A64] |  |  |  |  |  |  | 150 µM |  |  | 29 µM |  |  |  |  |  |  | 
6 | CCCCc1ccc(NC(=O)C(=O)Nc2ccccc2NC(=O)C(c2ccccc2)S(=O)(=O)O)cc1 (stereo not drawn) [Compound L319-21-M06] |  |  |  |  |  |  | > 50 µM |  |  | > 50 µM |  |  | > 50 µM | > 50 µM |  |  | 
7 | O=C(Nc1cccc(OCc2ccccc2)c1)C(=O)Nc1ccccc1NC(=O)C(c1ccccc1)S(=O)(=O)O (stereo not drawn) [Compound L319-21-M52] |  |  |  |  |  |  | > 50 µM |  |  | > 50 µM |  |  | > 50 µM | > 50 µM |  |  | 
8 | Cc1c(Br)cc(NC(=O)C(c2ccccc2)S(=O)(=O)O)cc1Br (stereo not drawn) [Compound L319M34] |  | > 200 | 92 |  |  |  | > 100 µM |  |  | 4.5 µM |  | 50 to 200 nM and 55 nM | 55.5 µM |  |  | 92 | 5.3
9 | O=C(Nc1ccc(OCc2ccccc2)c(Cl)c1)C(c1ccccc1)S(=O)(=O)O (stereo not drawn) [Compound L319M50] |  |  |  |  |  |  | > 100 µM |  |  |  |  |  | 53.2 µM | > 100 µM |  |  | 12.1
10 | O=C(Nc1cccc(OCc2ccccc2)c1)C(c1ccccc1)S(=O)(=O)O (stereo not drawn) [Compound L319M52] | > 200 |  |  | > 200 | > 200 | > 200 | 130 µM and > 100 µM | > 200 | > 200 | 72.3 µM |  | 106 nM | > 200 µM and 62.3 µM | 170 µM and > 100 µM |  |  | 
11 | O=C(Nc1ccc2nc(C(F)(F)F)[nH]c2c1)C(c1ccccc1)S(=O)(=O)O (stereo not drawn) [Compound L319M54] | > 200 |  |  | > 200 | > 200 | > 200 | > 200 µM | > 200 | > 200 | 7.96 µM and 5 µM |  | 78 nM | > 200 µM | > 200 µM | > 200 |  | 5.6
12 | O=C(Nc1ccc(N2CCOCC2)cc1)C(c1ccccc1)S(=O)(=O)O (stereo not drawn) [Compound L319M68] | > 200 |  |  | > 200 | > 200 | > 200 | > 200 µM | > 200 | > 200 | 20 µM |  | 5000 nM | > 200 µM | > 200 µM | > 200 |  | 8.1
13 | O=C(Nc1ccc(-c2ccccc2)cc1)C(c1ccccc1)S(=O)(=O)O (stereo not drawn) [Compound L319N08] |  |  | > 200 |  |  |  | 78 µM |  |  | 28.9 µM |  |  | 64.6 µM |  |  |  | 
14 | O=C(CS(=O)(=O)O)Nc1nc2ccc([N+](=O)[O-])cc2s1 [Compound L335N15-07] | > 100 |  |  | > 100 | > 100 | > 100 | > 100 µM | > 100 | > 100 | 0.3 µM |  |  | > 100 µM | > 100 µM | > 100 |  | 
